Assay results as given in patent publication US9040715B2 (priority 2008, dated 2015).
In brackets after ≈: the same amount, converted by molar mass.

Tests used:
[1] = tested on: Aspergillus fumigatus; experiment: Anti-fungal/anti-yeast activity: MIC50 (broth microdilution) and MFC; assay type: cell-based
Experimental: (§1) Fluconazole, an ergosterol inhibitor, and the beta-1,3-glucan inhibitor micafungin served as controls (See Tables 1-8).
(§2) The minimum inhibitory concentrations resulting in 50% growth inhibition (MIC50) of […] Candida species (C. albicans, C. tropicalis and C. glabrata, C. lusitaniae, C. parapsilosis, and C. apicola) as well as Aspergillus fumigatus to a set of novel synthetic compounds was determined in accordance with the guidelines in CLSI document M27-A2 (Clinical and Laboratory Standards Institute; Wayne, Pa.). The total volume of cells and drug was 100 μL per microtiter well, and each drug was diluted in RPMI to achieve final concentrations of 0.2-100 μg/ml. Uninoculated cultures were used as a reference standard. Stock inoculum suspensions were prepared from 24 hour cultures on YPD (yeast extract/peptone/dextrose) media at 30° C. For MIC determinations, an inoculum of 1.0×10^3 cells of Candidia and 2.0×10^3 cells of Aspergillus per well were used, and cells in diluted drugs were prepared in RPMI-1640 medium. MICs were determined both visually and spectrophotometrically at 24 hours and 48 h at 550 nm using a micro plate reader. The MIC50 endpoint was measured as the lowest drug concentration resulting in a reduction of growth of 50% or more compared with growth of the control.
(§3) The minimum fungicidal concentrations (MFCs) were determined for each drug-isolate-medium combination as follows. After 48 hours of incubation, 100 μL of each drug-isolate-medium combination (2 plates) was subcultured onto YPD plates (100 μL of solution was spread over the YPD plate). […] The plates were then incubated at 30° C. for 48 hours.
(§4) The in vitro fungicidal activities (MFCs) were determined for each drug-isolate-medium combination as follows. After 48 hours of incubation, 10 μL each drug-isolate-medium combination was spotted onto YPD plates (10 μL of each well is spotted sequentially with positive and negative control wells). […] The plates were then incubated at 30° C. for 48 hours.

[2] = tested on: Candida albicans (CAF-2); experiment: as above; assay type: cell-based; settings: for MIC: read-out: MIC-50
Experimental: as §1, §2, §3, §4

[3] = tested on: Candida apicola; experiment: as above; assay type: cell-based; settings: for Activity (fungicidal/fungistatic) / MIC-50 / Ratio MFC/MIC: Candida apicola; for MFC: Starmerella apicola
Experimental: as §1, §2, §3, §4

[4] = tested on: Candida glabrata; experiment: as above; assay type: cell-based; settings: for Activity (fungicidal/fungistatic) / Ratio MFC/MIC: Candida glabrata; for MFC / MIC: Nakaseomyces glabratus; for MIC: read-out: MIC-50
Experimental: as §1, §2, §3, §4

[5] = tested on: Candida lusitaniae; experiment: as above; assay type: cell-based; settings: for Activity (fungicidal/fungistatic) / Ratio MFC/MIC: Candida lusitaniae; for MFC / MIC: Clavispora lusitaniae; for MIC: read-out: MIC-50
Experimental: as §1, §2, §3, §4

[6] = tested on: Candida tropicalis; experiment: as above; assay type: cell-based; settings: for MIC: read-out: MIC-50
Experimental: as §1, §2, §3, §4

[7] = tested on: Candidia parapsilosis; experiment: as above; assay type: cell-based; settings: for Activity (fungicidal/fungistatic) / Ratio MFC/MIC: Candidia parapsilosis; for MIC: read-out: MIC-50
Experimental: as §1, §2, §3, §4

[8] = tested on: Saccharomyces cerevisiae (YPH501); experiment: as above; assay type: cell-based; settings: for MFC / MIC: Saccharomyces cerevisiae; for Activity (fungicidal/fungistatic) / Ratio MFC/MIC: Saccharomyces cerevisiae (YPH501); for MIC: read-out: MIC-50
[9] = tested on: Huh7 cells; experiment: Neutral red uptake assay (cytotoxicity); assay type: cell-based, human
Description: The neutral red uptake assay is a cytotoxicity test that is based on the ability of viable cells to incorporate and bind the supra-vital dye neutral red in the lysosomes. This weakly cationic dye penetrates cell membranes by non-ionic passive diffusion and concentrates in the lysosomes, where it binds by electrostatic hydrophobic bonds to anionic and phosphate groups of the lysosomal matrix. The dye is then extracted from the viable cells using an acidified ethanol solution, and the absorbance of the solubilized dye is read. When the cell dies or the pH gradient is reduced, the dye is not retained and consequently, the amount of retained dye is proportional to the number of viable cells. Most primary cells and cell lines can be used for this method. The HepG2 and Huh7, two human hepatoma cell lines, were used for this study. The cells were seeded in 96-well tissue culture plates and treated for 48 hours with the compounds. The plates were then incubated for 2 hours with a medium containing neutral red. The cells were subsequently washed, the dye was extracted in each well, and the absorbance was read using a spectrophotometer (FIG. 3 and Table 11).

[10] = tested on: Huh7 or HepG2 cell line; experiment: MTT assay (cytotoxicity); assay type: cell-based, human; settings: 24 hours and 48 hours
Experimental: The MTT assay is a colorimetric assay that measures the reduction of yellow 3-(4,5-dimethylhiazol-2-yl)-2,5-diphenyl tetrazolium bromide (MTT) by mitochondrial succinate dehydrogenase. The MTT enters the cells and passes into the mitochondria where it is reduced to an insoluble, dark purple, formazan product. The cells are then solubilized with an organic solvent (e.g., isopropanol) and the released, solubilized formazan reagent is measured spectrophotometrically. Since reduction of MTT can only occur in metabolically active cells, the level of activity is a measure of the viability of the cells.
Cells of the Huh7 or HepG2 cell line were seeded in a 96 well plate. The plate was incubated overnight at 37° C. in a humidified incubator, 5% CO2. The test compounds were added to the plate. Different concentrations of drug were tested in triplicate along with a negative control. The final volume was adjusted to 100 μl per well. The plate was incubated overnight at 37° C. in a humidified incubator, 5% CO2. After 24 hours and 48 hours, MTT reagent (5 mg/ml, 10 μl/100 μl per well of the 96 well plate) was added and incubated at 37° C. for 3 hours. After 3 hours, 100 μl of the DMSO solution was added to each well and the plate was rocked at room temperature for 1 hour. The plate was then read on a plate reader at […].

[11] = tested on: C. albicans Mutants; experiment: MIC50 in C. albicans mutant strains; assay type: cell-based; settings: Candida albicans
Experimental: as §2
The MIC50 of Compounds I-1, I-2, and I-5 in several mutant strains of Candida albicans, including fluconazole resistant clinical strains, was determined according to the methods described in Example 1 (see Table 9). The activity of Compound I-1 against fluconazole resistant strains was further explored (see Table 10). In Table 10, Strain #1 is a fluconazole sensitive Candida albicans strain; Strain #17 is a fluconazole resistant Candida albicans strain; C. albicans CS#01 is a first clinical strain; C. albicans CS#02 is a second clinical strain.

COc1ccc(Cc2nnc(Cn3sc4ccccc4c3=O)o2)cc1 [Compound I-3]
Activity (fungicidal/fungistatic) [1]: fungicidal (An MFC/MIC ratio of less than four indicates that the compound is fungicidal) | MFC [1]: 12.5 µg/mL | MIC50 [1]: 6.4 µg/mL | Ratio MFC/MIC [1]: 2 | Activity (fungicidal/fungistatic) [2]: fungicidal (An MFC/MIC ratio of less than four indicates that the compound is fungicidal) | MFC [2]: 12.5 µg/mL | Ratio MFC/MIC [2]: 1 | MIC [2]: 12.5 µg/mL | Activity (fungicidal/fungistatic) [3]: fungicidal (An MFC/MIC ratio of less than four indicates that the compound is fungicidal) | MIC-50 [3]: 6.4 µg/mL | Ratio MFC/MIC [3]: 2 | MFC [3]: 12.5 µg/mL | Activity (fungicidal/fungistatic) [4]: fungicidal (An MFC/MIC ratio of less than four indicates that the compound is fungicidal) | Ratio MFC/MIC [4]: 2 | MFC [4]: 50 µg/mL | MIC [4]: 25 µg/mL | Activity (fungicidal/fungistatic) [5]: fungicidal (An MFC/MIC ratio of less than four indicates that the compound is fungicidal) | Ratio MFC/MIC [5]: 2 | MFC [5]: 12.5 µg/mL | MIC [5]: 6.4 µg/mL | Activity (fungicidal/fungistatic) [6]: fungicidal (An MFC/MIC ratio of less than four indicates that the compound is fungicidal) | MFC [6]: 12.5 µg/mL | Ratio MFC/MIC [6]: 2 | MIC [6]: 6.4 µg/mL | MFC [7]: 12.5 µg/mL | Activity (fungicidal/fungistatic) [7]: fungicidal (An MFC/MIC ratio of less than four indicates that the compound is fungicidal) | Ratio MFC/MIC [7]: 2 | MIC [7]: 6.4 µg/mL | MFC [8]: 12.5 µg/mL (≈ 35.4 µM) | Activity (fungicidal/fungistatic) [8]: fungicidal (An MFC/MIC ratio of less than four indicates that the compound is fungicidal) | Ratio MFC/MIC [8]: 1 | MIC [8]: 12.5 µg/mL (≈ 35.4 µM) | Percentage Viability ([9]; 3.3 μg/mL (approx 1X MIC)): >100% | Percentage Viability ([9]; 10 μg/mL (approx 3X MIC)): >100% | Percentage Viability ([9]; 33 μg/mL (approx 10X MIC)): >100% | Percentage Viability ([9]; 100 μg/mL (approx 30X MIC)): >100% | Toxicity to mammalian cell lines (MTT assay) [10]: minimally toxic

O=C(Cn1sc2ccccc2c1=O)NNC(=O)c1cccc(Cl)c1 [Compound I-5]
Activity (fungicidal/fungistatic) [2]: fungicidal (An MFC/MIC ratio of less than four indicates that the compound is fungicidal) | MFC [2]: 12.5 µg/mL | Ratio MFC/MIC [2]: 2 | MIC [2]: 6.4 µg/mL | Activity (fungicidal/fungistatic) [3]: fungicidal (An MFC/MIC ratio of less than four indicates that the compound is fungicidal) | MIC-50 [3]: 6.4 µg/mL | Ratio MFC/MIC [3]: 2 | MFC [3]: 12.5 µg/mL | Activity (fungicidal/fungistatic) [4]: fungicidal (An MFC/MIC ratio of less than four indicates that the compound is fungicidal) | Ratio MFC/MIC [4]: 1 | MFC [4]: 6.4 µg/mL | MIC [4]: 6.4 µg/mL | Activity (fungicidal/fungistatic) [5]: fungicidal (An MFC/MIC ratio of less than four indicates that the compound is fungicidal) | Ratio MFC/MIC [5]: 2 | MFC [5]: 6.4 µg/mL | MIC [5]: 3.2 µg/mL | Activity (fungicidal/fungistatic) [6]: fungicidal (An MFC/MIC ratio of less than four indicates that the compound is fungicidal) | MFC [6]: 12.5 µg/mL | Ratio MFC/MIC [6]: 2 | MIC [6]: 6.4 µg/mL | MFC [7]: 12.5 µg/mL | Activity (fungicidal/fungistatic) [7]: fungicidal (An MFC/MIC ratio of less than four indicates that the compound is fungicidal) | Ratio MFC/MIC [7]: 2 | MIC [7]: 6.4 µg/mL | MFC [8]: 3 µg/mL (≈ 8.29 µM) | Activity (fungicidal/fungistatic) [8]: fungicidal (An MFC/MIC ratio of less than four indicates that the compound is fungicidal) | Ratio MFC/MIC [8]: 1 | MIC [8]: 3 µg/mL (≈ 8.29 µM) | MIC50 ([11]; C. albicans strain CAF-2): 6 µg/mL (≈ 16.6 µM) | MIC50 ([11]; C. albicans strain CHK11): 6 µg/mL (≈ 16.6 µM) | MIC50 ([11]; C. albicans strain CHK21): 6 µg/mL (≈ 16.6 µM) | MIC50 ([11]; C. albicans strain CHK23): 6 µg/mL (≈ 16.6 µM) | MIC50 ([11]; C. albicans strain GOA31): 6 µg/mL (≈ 16.6 µM) | MIC50 ([11]; C. albicans strain GOA32): 6 µg/mL (≈ 16.6 µM) | Percentage Viability ([9]; 3.3 μg/mL (approx 1X MIC)): >100% | Percentage Viability ([9]; 10 μg/mL (approx 3X MIC)): >100% | Percentage Viability ([9]; 33 μg/mL (approx 10X MIC)): >100% | Percentage Viability ([9]; 100 μg/mL (approx 30X MIC)): 92% | Toxicity to mammalian cell lines (MTT assay) [10]: minimally toxic
